Experiments:
[1] = target: T1, recombinant ADAMTS1 (p65-ADAMTS1) expressed in E. coli (Homo sapiens, UniProt Q9UHI8); experiment: FRET peptide cleavage assay (Abz/Dnp), dose-response; assay type: biochemical
T1 construct: 1452 nt cDNA fragment (nt 1206-2657, 484 codons; propeptide and C-terminal part absent; primer starts at KRFVSS, ends ISGSVTSA); pET32a Trx fusion, Trx removed by enterokinase, C-terminal His tag; E. coli BL21(DE3); heparin-sepharose purified; fusion about 70 kDa
T1 sequence (Q9UHI8 251-734): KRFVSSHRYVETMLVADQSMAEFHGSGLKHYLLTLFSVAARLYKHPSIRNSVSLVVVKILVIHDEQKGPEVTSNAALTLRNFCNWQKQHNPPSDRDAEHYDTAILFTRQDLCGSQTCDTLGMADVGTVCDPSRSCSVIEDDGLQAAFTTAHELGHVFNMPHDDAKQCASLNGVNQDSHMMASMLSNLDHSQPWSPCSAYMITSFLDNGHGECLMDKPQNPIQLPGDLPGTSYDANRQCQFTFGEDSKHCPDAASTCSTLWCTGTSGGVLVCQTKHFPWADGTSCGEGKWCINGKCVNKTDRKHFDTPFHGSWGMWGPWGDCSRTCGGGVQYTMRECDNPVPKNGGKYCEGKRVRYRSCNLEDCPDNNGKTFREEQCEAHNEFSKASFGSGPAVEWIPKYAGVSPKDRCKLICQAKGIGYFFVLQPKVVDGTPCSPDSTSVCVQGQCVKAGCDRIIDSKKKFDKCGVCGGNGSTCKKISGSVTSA
Excerpt: FRET peptide cleavage assay (Abz/Dnp), dose-response on recombinant ADAMTS1 (p65-ADAMTS1) expressed in E. coli

[2] = target: T2, human recombinant ADAMTS1 expressed in the murine myeloma cell line (R&D Systems) (Homo sapiens, UniProt Q9UHI8); experiment: as above; assay type: biochemical
T2 construct: commercial recombinant protein from R&D Systems, murine myeloma cell line
T2 sequence (Q9UHI8 253-967): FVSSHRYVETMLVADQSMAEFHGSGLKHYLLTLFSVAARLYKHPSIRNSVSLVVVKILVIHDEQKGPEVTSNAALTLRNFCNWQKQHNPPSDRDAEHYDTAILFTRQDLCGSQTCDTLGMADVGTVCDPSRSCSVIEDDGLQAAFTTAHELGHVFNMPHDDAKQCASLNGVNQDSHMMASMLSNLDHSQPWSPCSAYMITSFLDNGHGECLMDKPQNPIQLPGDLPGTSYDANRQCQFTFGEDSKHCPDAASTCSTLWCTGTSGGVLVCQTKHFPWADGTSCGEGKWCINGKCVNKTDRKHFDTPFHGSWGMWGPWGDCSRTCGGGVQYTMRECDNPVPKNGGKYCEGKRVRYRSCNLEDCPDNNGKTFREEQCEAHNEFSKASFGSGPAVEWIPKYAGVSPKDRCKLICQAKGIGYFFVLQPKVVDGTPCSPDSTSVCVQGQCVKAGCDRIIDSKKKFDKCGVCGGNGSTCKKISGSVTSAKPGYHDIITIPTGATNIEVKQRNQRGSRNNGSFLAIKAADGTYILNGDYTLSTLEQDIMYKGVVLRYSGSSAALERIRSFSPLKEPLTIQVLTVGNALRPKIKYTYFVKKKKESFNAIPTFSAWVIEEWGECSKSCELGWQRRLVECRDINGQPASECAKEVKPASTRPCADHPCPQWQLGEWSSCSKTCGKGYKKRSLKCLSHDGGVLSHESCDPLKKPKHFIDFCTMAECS
Excerpt: FRET peptide cleavage assay (Abz/Dnp), dose-response on human recombinant ADAMTS1 expressed in the murine myeloma cell line (R&D Systems)

IC50 [1]	IC50 [2]	Structure (SMILES)
7.6 ± 0.6 µM	5.5 ± 0.4 µM	CC1=C[C@H](c2cc(/C=C/c3cc(O)cc(O)c3)c(O)cc2O)[C@@H](C(=O)c2ccc(O)cc2O)[C@H](c2ccc(O)cc2O)C1 [J14713, kuwanon P]
11.9 ± 0.7 µM	10.7 ± 0.6 µM	CC1=C[C@H](c2cc3cc(-c4cc(O)cc(O)c4)oc3cc2O)[C@@H](C(=O)c2ccc(O)cc2O)[C@H](c2ccc(O)cc2O)C1 [J14715, albafuran C]
